The text below walks through data of paper PMC11224465, “Characterization of the somatostatin system in tilapia: implications for growth and reproduction” (Frontiers in Endocrinology, 2024).

One test concerns aggressive behavior. More on the design: method as in PMID 16887916. The settings on record: cichlid fish, 4 mg/kg; cited from earlier work.
Test [1] deals with T1, tilapia SSTR2a (Oreochromis niloticus, UniProt I3KUD5). Nature of the test: Cre-luc reporter assay, agonist/antagonist combination plus forskolin, COS-7 cells with SSTR2a. It is filed as cell-based, Nile tilapia (Oreochromis niloticus). The settings on record: mean ± SEM. From the text:
(§1) The signaling pathways of SSTRs were studied by inserting the entire coding sequence of the four receptors expressed in the pituitary (SSTR2a, SSTR3a, SSTR5b, and SSTR3b; accession nos. XP_003438730.1, XP_019215873.1, XP_003452896.1, and XP_019213185.1, respectively; Table 1 ) into pcDNA3.1 (Invitrogen) and verified by cloning and sequencing. The sequences were obtained from GenScript Biotech based on sequence information retrieved from GenBank. The procedures for transient transfection of the different cell lines and receptor stimulation have been described previously ([35], [36]). In brief, COS-7 cells were cotransfected with a luciferase reporter plasmid (Cre-luc; 3 µg) and one of the SSTRs (3 µg). As a control treatment, the […] (data not shown). […] Six hours after stimulation, the cells were analyzed using the GloMax multidetection system (Promega).
(§2) In another set of assays, the SST receptors were exposed to increasing concentrations of cyclosomatostatin, an SSTR antagonist (0–1000 nM; each in triplicate), in combination with octreotide, an SSTR agonist (10 nM), and FSK (20 μM), or increasing concentrations of octreotide (0–1000 nM; each in triplicate) in combination with cyclosomatostatin (10 nM) and FSK (20 μM). […]
In general terms: Reporter assays use an easily measured gene product as a stand-in for the process of interest.

A further test deals with human SSTR2. Also on record: method as in PMID 8532003. The settings on record: cited from earlier work.
A further test concerns SSTR5. More on the design: method as in PMID 8532003. The settings on record: human; cited from earlier work.
Test [2] addresses T2, tilapia SSTR5b (Oreochromis niloticus, UniProt I3J1C6).
T2 sequence (I3J1C6 1-359): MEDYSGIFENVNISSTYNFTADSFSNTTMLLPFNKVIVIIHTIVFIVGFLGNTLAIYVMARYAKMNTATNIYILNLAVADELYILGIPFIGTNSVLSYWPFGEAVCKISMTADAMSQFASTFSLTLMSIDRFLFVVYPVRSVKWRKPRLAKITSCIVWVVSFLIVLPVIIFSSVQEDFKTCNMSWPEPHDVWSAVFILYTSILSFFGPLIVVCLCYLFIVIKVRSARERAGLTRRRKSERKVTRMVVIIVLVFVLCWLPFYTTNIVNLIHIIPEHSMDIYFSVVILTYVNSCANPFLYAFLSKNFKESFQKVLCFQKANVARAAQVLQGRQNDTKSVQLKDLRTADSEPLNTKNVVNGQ
Nature of the test: Cre-luc reporter assay, ligand plus forskolin, COS-7 cells transfected with SSTR5b. It is filed as cell-based, Nile tilapia (Oreochromis niloticus). As to conditions: FSK 20 μM, mean ± SEM, read-out: IC50 on SST-R5b (Cre-luciferase).
Source text: as §1

The target of test [3] is T3, tilapia SSTR3a (Oreochromis niloticus, UniProt I3K8H1).
T3 sequence (I3K8H1 1-482): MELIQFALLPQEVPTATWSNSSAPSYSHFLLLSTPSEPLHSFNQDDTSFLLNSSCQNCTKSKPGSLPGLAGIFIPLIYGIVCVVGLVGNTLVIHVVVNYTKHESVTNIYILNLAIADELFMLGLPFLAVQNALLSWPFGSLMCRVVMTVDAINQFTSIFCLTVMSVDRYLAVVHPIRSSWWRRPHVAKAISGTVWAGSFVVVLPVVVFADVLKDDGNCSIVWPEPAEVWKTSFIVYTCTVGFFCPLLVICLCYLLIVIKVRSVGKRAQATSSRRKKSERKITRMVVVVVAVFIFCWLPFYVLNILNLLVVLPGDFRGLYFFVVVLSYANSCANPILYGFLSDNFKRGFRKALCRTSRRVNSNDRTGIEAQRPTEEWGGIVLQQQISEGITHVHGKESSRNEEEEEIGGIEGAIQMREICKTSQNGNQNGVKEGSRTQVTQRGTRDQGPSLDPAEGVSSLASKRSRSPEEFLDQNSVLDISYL
Briefly: Cre-luc reporter assay, ligand plus forskolin, COS-7 cells transfected with SSTR3a. It is filed as cell-based, Nile tilapia (Oreochromis niloticus). As to conditions: FSK 20 μM, mean ± SEM, read-out: IC50 on SST-R3a (Cre-luciferase).
Source text: as §1

Another test relates to FSH plasma levels. Briefly: In vivo effect on FSH plasma levels (ELISA) after IP injection. More on the design: species or system Nile tilapia (Oreochromis niloticus). As to conditions: female tilapia, 100 µg/kg IP, sampled 2, 4, 6, 24 h. On the procedure:
(§3) Adult female tilapia (body weight 89.29 ± 32.93 g) were injected IP with saline, cyclosomatostatin, or octreotide (100 μg/kg; n = 8 fish per group). The fish were bled from the caudal blood vessels into heparinized syringes at 0, 2, 4, 6, and 24 h after injection. Blood was centrifuged at 3,200 rpm for 30 min at 4°C to obtain plasma samples, which were stored at -20°C until assayed. This standard protocol was used previously to test the effect of GnRH and other hypothalamic neuropeptides on circulating levels of LH, FSH, and GH in tilapia ([33], [37], [38]). Three independent experiments were performed for each treatment. Plasma levels of LH, FSH, and GH were measured by specific competitive ELISAs developed for tilapia ([39], [40]) based on recombinant ([…] or rtiGH. The […] produced against […]β ([40]), or rtGH ([39]), and […]βα ([37]) or rtGH ([39]) was used to generate a standard curve. The sensitivity of plasma measurements was 15.84 pg/ml for LH, 0.24 pg/ml for FSH, and 35.0 pg/ml for GH.

The target of test [4] is T2, tilapia SSTR5b. Nature of the test: Cre-luc reporter assay, agonist/antagonist combination plus forskolin, COS-7 cells with SSTR5b. It is filed as cell-based, Nile tilapia (Oreochromis niloticus). As to conditions: mean ± SEM.
Source text: as §1, §2

The subject of a further test is SSTR3a. Also on record: method as in PMID 8532003. The settings on record: cited from earlier work.
A further test concerns LH plasma levels. Nature of the test: In vivo effect on LH plasma levels (ELISA) after IP injection. Also on record: species or system Nile tilapia (Oreochromis niloticus). As to conditions: female tilapia, 100 µg/kg IP, sampled 2, 4, 6, 24 h. On the procedure: as §3
Test [5] has as its target T4, tilapia SSTR3b (Oreochromis niloticus, UniProt I3L056). Nature of the test: Cre-luc reporter assay, agonist/antagonist combination plus forskolin, COS-7 cells with SSTR3b. It is filed as cell-based, Nile tilapia (Oreochromis niloticus).
Source text: as §1
In another set of assays, the SST receptors were exposed to increasing concentrations of cyclosomatostatin, an SSTR antagonist (0–1000 nM; each in triplicate), in combination with octreotide, an SSTR agonist (10 nM), and FSK (20 μM), or increasing concentrations of octreotide (0–1000 nM; each in triplicate) in combination with cyclosomatostatin (10 nM) and FSK (20 μM). Three individual experiments were conducted using distinct batches of COS-7 cells for each experiment and including three replicates for every concentration.

The target of test [6] is T1, tilapia SSTR2a. Nature of the test: Cre-luc reporter assay, ligand plus forskolin, COS-7 cells transfected with SSTR2a. The settings on record: FSK 20 μM, subnanomolar concentrations. It is filed as cell-based, Nile tilapia (Oreochromis niloticus).
Source text: as §1

The target of test [7] is T4, tilapia SSTR3b. Briefly: Cre-luc reporter assay, ligand plus forskolin, COS-7 cells transfected with SSTR3b. As to conditions: FSK 20 μM alone as backdrop. It is filed as cell-based, Nile tilapia (Oreochromis niloticus).
Protocol: In brief, COS-7 cells were cotransfected with a luciferase reporter plasmid (Cre-luc; 3 µg) and one of the SSTRs (3 µg). […] Six hours after stimulation, the cells were analyzed using the GloMax multidetection system (Promega).
For a further test, the system named is GH plasma levels. Nature of the test: In vivo effect on GH plasma levels (ELISA) after IP injection. Also on record: species or system Nile tilapia (Oreochromis niloticus). The settings on record: female tilapia, 100 µg/kg IP, sampled 2, 4, 6, 24 h. On the procedure: as §3
Background: ELISA stands for enzyme-linked immunosorbent assay.

The target in test [8] is T3, tilapia SSTR3a. Nature of the test: Cre-luc reporter assay, agonist/antagonist combination plus forskolin, COS-7 cells with SSTR3a. The settings on record: in presence of octreotide 10 nM and FSK 20 μM, mean ± SEM, read-out: EC50 on SST-R3a (Cre-luciferase). It is filed as cell-based, Nile tilapia (Oreochromis niloticus).
Source text: as §1, §2

“And” between values parts separate entries of the source, which are not always exact repeats. Equal values may be shown once. “Also recorded” adds a separate entry of the source. Positions of bridges follow the written chain, without caps; N, C: chain ends. Non-standard residues stand in square brackets, D forms with d. Residues, ends and D or L forms follow the SMILES beside them. *: point of attachment. Ahp = NCCCCCCC(=O)O; Bn = c1ccc(C*)cc1

T1 sequence (I3KUD5 1-379): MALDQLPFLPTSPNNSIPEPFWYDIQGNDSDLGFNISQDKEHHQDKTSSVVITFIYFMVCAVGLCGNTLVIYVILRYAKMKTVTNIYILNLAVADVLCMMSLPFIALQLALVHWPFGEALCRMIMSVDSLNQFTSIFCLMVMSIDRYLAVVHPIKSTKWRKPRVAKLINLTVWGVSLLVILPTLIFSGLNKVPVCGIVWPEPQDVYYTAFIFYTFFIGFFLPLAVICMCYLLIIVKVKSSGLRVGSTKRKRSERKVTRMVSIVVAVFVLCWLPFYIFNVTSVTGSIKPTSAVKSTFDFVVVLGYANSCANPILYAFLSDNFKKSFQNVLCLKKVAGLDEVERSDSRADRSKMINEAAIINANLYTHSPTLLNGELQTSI
T4 sequence (I3L056 29-511): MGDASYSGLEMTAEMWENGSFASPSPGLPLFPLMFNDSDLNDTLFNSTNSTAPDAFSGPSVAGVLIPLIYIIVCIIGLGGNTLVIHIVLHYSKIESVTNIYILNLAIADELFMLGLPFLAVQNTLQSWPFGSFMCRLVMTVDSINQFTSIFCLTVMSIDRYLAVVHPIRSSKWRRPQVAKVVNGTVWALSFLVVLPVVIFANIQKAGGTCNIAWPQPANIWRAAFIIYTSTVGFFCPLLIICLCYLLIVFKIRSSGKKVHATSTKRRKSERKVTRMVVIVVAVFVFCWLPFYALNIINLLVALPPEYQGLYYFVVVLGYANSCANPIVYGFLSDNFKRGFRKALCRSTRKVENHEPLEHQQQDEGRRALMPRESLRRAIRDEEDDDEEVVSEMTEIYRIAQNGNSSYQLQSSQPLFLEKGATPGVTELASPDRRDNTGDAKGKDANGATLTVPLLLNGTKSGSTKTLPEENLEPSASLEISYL

Broadly, the IC50 is the concentration needed to halve the response being measured. As for `C[C@@H](O)[C@@H]1NC(=O)[C@H](CCCCN)NC(=O)[C@@H](Cc2c[nH]c3ccccc23)NC(=O)[C@H](Cc2ccccc2)NC(=O)[C@@H](NC(=O)[C@H](N)Cc2ccccc2)CSSC[C@@H](C(=O)N[C@H](CO)[C@@H](C)O)NC1=O` [Octreotide, octreotide], in the test with aggressive behavior, the Aggressive behavior result is “decrease”. The IC50 at tilapia SSTR2a [1] (in presence of cyclosomatostatin 10 nM and FSK 20 μM, read-out: IC50 on SST-R2a (Cre-luciferase)) is 0.81 ± 0.01 nM; on tilapia SSTR5b [2], 906 nM and 157 nM; on tilapia SSTR3a [3], 0.004 nM; on tilapia SSTR5b [4] (in presence of cyclosomatostatin 10 nM and FSK 20 μM, read-out: IC50 on SST-R5b (Cre-luciferase)) it was 17.4 ± 3.14 nM; on tilapia SSTR3b [5] (COS-7 cells, in presence of cyclosomatostatin 10 nM and FSK 20 μM, mean ± SEM, read-out: IC50 on SST-R3b (Cre-luciferase)) it was 0.35 ± 0.04 nM. For the same compound, in the test with human SSTR2, the “Affinity to human SSTR2” value is “high affinity”. Also, in the test with SSTR5, the “Affinity to SSTR5” value was “high affinity”. Also, the figures for the “FSH plasma levels vs control” value in the test on FSH plasma levels and in the test on FSH plasma levels (listed as octreotide) were “reduced” and “decreased”, respectively. In the test on SSTR3a, the “Affinity to SSTR3a” value is given as “moderate affinity”. For the same compound, the “LH plasma levels vs control” value was “remained similar to the control; also recorded: no significant effect” with LH plasma levels and “remained unaffected” with LH plasma levels (listed as octreotide). Also, at tilapia SSTR2a [6], the “Effect on tiSSTR2a Cre-luc activity” value is “inhibited”. Further, on tilapia SSTR3b [7], the “Effect on SSTR3b Cre-luc activity” value is recorded as “no discernible activation”. Moreover, the “GH plasma levels vs control” value with GH plasma levels is “significantly decreased”.
On to `C[C@H](N)C(=O)N1CCC[C@H]1C(=O)N[C@H]1CSSC[C@@H](C(=O)O)NC(=O)[C@H](CO)NC(=O)[C@H]([C@@H](C)O)NC(=O)[C@H](Cc2ccccc2)NC(=O)[C@H]([C@@H](C)O)NC(=O)[C@H](CCCCN)NC(=O)[C@H](Cc2c[nH]c3ccccc23)NC(=O)[C@H](Cc2ccccc2)NC(=O)[C@H](Cc2ccccc2)NC(=O)[C@H](CC(N)=O)NC(=O)[C@H](CCCCN)NC1=O` [SST6] (H-APCKNFFWKTFTSC-OH; disulfide 3-14; N-terminus and C-terminus assumed), for which the IC50 came to 906.1 ± 0.5 nM on tilapia SSTR5b [2] and 3.75 ± 0.04 nM at tilapia SSTR3a [3]. For the same compound, the “Effect on tiSSTR2a Cre-luc activity” value at tilapia SSTR2a [6] is “inhibited”.
On the same counts, the results for `CC(C)C[C@@H]1NC(=O)CNC(=O)[C@H](CCCCN)NC(=O)[C@H](Cc2c[nH]c3ccccc23)NC(=O)[C@H](Cc2ccc(O)cc2)NC(=O)[C@H](Cc2ccccc2)NC(=O)[C@H](CC(N)=O)NC(=O)[C@H](CCCCN)NC(=O)[C@@H](NC(=O)CNC(=O)[C@H](C)N)CSSC[C@@H](C(=O)O)NC(=O)[C@H](CO)NC(=O)[C@H]([C@@H](C)O)NC1=O` [SST3] (H-AGCKNFYWKGLTSC-OH; disulfide 3-14; N-terminus and C-terminus assumed) are 720.2 ± 0.5 nM, 572.9 ± 0.1 nM and “inhibited”.
In general, EC50 refers to the concentration that produces a half-maximal response. Regarding `C[C@@H](OCc1ccccc1)[C@@H]1NC(=O)[C@H](CCCCN)NC(=O)[C@@H](Cc2c[nH]c3ccccc23)NC(=O)[C@H](Cc2ccccc2)NC(=O)CCCCCCNC1=O` [Cyclosomatostatin, cyclosomatostatin] (cyclo([Ahp]F[dW]KT(Bn)); ring closure inferred), the EC50 on tilapia SSTR2a [1] (in presence of octreotide 10 nM and FSK 20 μM, read-out: EC50 on SST-R2a (Cre-luciferase)) worked out at 189 ± 4.34 nM; on tilapia SSTR5b [4] (in presence of octreotide 10 nM and FSK 20 μM, read-out: EC50 on SST-R5b (Cre-luciferase)), 2.15 ± 0.009 nM; on tilapia SSTR3b [5] (COS-7 cells, in presence of octreotide 10 nM and FSK 20 μM, mean ± SEM, read-out: EC50 on SST-R3b (Cre-luciferase)), 46.2 ± 3.82 nM; on tilapia SSTR3a [8], 0.1 ± 0.001 nM. The “FSH plasma levels vs control” value is “increased” in the test with FSH plasma levels and “remained elevated for 6 h” with FSH plasma levels (listed as SSTR antagonist). Moreover, the results for the “LH plasma levels vs control” value in the test on LH plasma levels and in the test with LH plasma levels (listed as SSTR antagonist) were “increased” and “returned to baseline after 4 h”, respectively. In addition, on tilapia SSTR3b [5] (in the presence of both FSK and octreotide), the “Activation of SSTR3b (Cre-luc)” value is “efficient activation”. Also, the “GH plasma levels vs control” value with GH plasma levels is “the same as in the control fish”.
